Patent US20130317096A1, “SYNERGISTIC INTERACTION OF AT LEAST ONE VITAMIN E COMPONENT AND TYROSINASE INHIBITORS FOR DERMATOLOGICAL APPLICATIONS” (Davos Life Science Pte Ltd, priority 2010, published 2013)

What was measured:
B16 melanoma cells = test: Melanin content of treated B16 melanoma cells; assay type: cell-based, mouse; details: for melanin content lower than controls / melanin content: 20 μM; for melanin content: days 5 and 9
Experimental: At different time points, cells were harvested using trysin-EDTA and the cell pellets were washed once with phosphate-buffered saline (PBS). A sample amount from each compound treatment group was divided into two equal parts. These cell pellets were then stored at −80° C. prior to the measurement of the tyrosinase activity and melanin content.
Harvested cell pellets were dissolved in 1 ml of 1N sodium hydroxide before incubation at 80° C. The melanin content was then immediately measured at 420 nm. The absorbance percentage values of the treated groups in comparison to untreated controls were calculated against per μg of the determined total protein content.

[1] = system: B16 cells xenografted on the flank of nude mice; test: B16 xenograft model in nude mice; assay type: in vivo; details: cells pre-treated with 20 μM for 1 week, 14 days oral supplementation
Experimental: The experimental protocol was approved by the IACUC Committee of the A-STAR Biological Resource Centre (BRC) at Biopolis (IACUC no. 080302). Male BALB/c athymic nude mice (4-5 weeks old, 18-22 g) were purchased from The Jackson Laboratory (Bar Harbor, Me., USA). Mice were housed in Department 1 of the Biological Resource Centre (Biopolis, Singapore) under the standard condition (20.8±2° C., 55±1% relative humidity, 12 hrs light/dark cycle) with rodent diet (Harlan Laboratories, Inc., Indianapolis, Ind., USA) and chlorinated reverse osmosis water supplied in a pathogen-free environment. Briefly, B16 cells were pre-treated with 20 μM of γ- and δ-T3, or palm TRF for 1 week. Then, 5×10^5 pre-treated B16 cells in 100 μl serum-free DMEM were injected subcutaneously into the flank of nude mice using a 1-ml syringe with a 26-gauge needle (Becton Dickinson, Franklin Lakes, N.J., USA). This was followed by a 2-week oral supplementation of γ- and δ-T3, or palm TRF at the dose of 100 mg/kg/day. Altogether, there are four experimental groups: G1, vehicle control; G2, γT3 (100 mg/kg/d); G3, δT3 (100 mg/kg/d); and G4, full spectrum palm TRF (100 mg/kg/d). The mice were weighed daily and the tumors were measured using a Digital Carbon Fiber Caliper (Fisher Scientific, Pittsburgh, Pa., USA) at the 5th and 14th day after innoculation. After 14 days of treatment, the mice were euthanized by CO2 inhalation. Blood samples were collected through cardiac bleeding using a 26-gauge needle. Blood samples were incubated at room temperature for 30 min, followed by centrifugation at 4400 rpm for 30 min at 4° C. Serum, as the supernatant, was separated from plasma and stored at −80° C. Tumors, liver, kidney, spleen, lung, heart, and skin were harvested.

Structure (SMILES): CC(C)=CCC/C(C)=C/CC/C(C)=C/CCC1(C)CCc2cc(O)c(C)c(C)c2O1 (stereo not shown) [γ-tocotrienol, 7,8-dimethyltocotrienol]
- melanin content lower than controls (B16 melanoma cells; day 5): 45%
- melanin content lower than controls (B16 melanoma cells; day 9): 30%
- melanin content (B16 melanoma cells; listed as gamma T3): significantly suppressed the melanin content up to day 9
- melanin content (B16 melanoma cells; listed as γT3): marginally lower than the treatment samples using 0.05% sodium lactate and kojic acid
- constitutive melanin synthesis (B16 melanoma cells; B16 melanoma cells): suppress constitutive melanin synthesis
- pigmentation of solid tumors [1]: lighter in colour compared to controls
- tumor size [1]: significantly smaller
